Measured values as given in ChEMBL document CHEMBL1671712, “Emergence of resistance among USA300 methicillin-resistant Staphylococcus aureus isolates causing invasive disease in the United States” (2010).

Columns and labels:
Staphylococcus aureus [1] = test: Antimicrobial activity against Staphylococcus aureus USA300 isolate harboring pSK41 plasmid expressing ermC gene assessed resistant isolates; assay type: functional
Staphylococcus aureus [2] = test: Antimicrobial activity against Staphylococcus aureus USA300 isolate harboring pSK41 plasmid assessed resistant isolates; assay type: functional
Staphylococcus aureus [3] = test: Antimicrobial activity against Staphylococcus aureus USA300 isolate harboring pSK41 plasmid expressing tetK gene assessed resistant isolates; assay type: functional
Staphylococcus aureus [4] = test: Antimicrobial activity against Staphylococcus aureus USA300 isolate harboring pSK41 plasmid expressing aac'-aph'''' gene assessed resistant isolates; assay type: functional, organism-based

Row | Compound | Activity (Staphylococcus aureus [2]) | also measured
1 | CCC[C@@H]1C[C@@H](C(=O)N[C@@H]([C@H]2O[C@H](SC)[C@H](O)[C@@H](O)[C@H]2O)[C@H](C)Cl)N(C)C1 [CLINDAMYCIN] | – | Activity (Staphylococcus aureus [1]): 6.2%
2 | CC[C@H]1OC(=O)[C@H](C)[C@@H](O[C@H]2C[C@@](C)(OC)[C@@H](O)[C@H](C)O2)[C@H](C)[C@@H](O[C@@H]2O[C@H](C)C[C@H](N(C)C)[C@H]2O)[C@](C)(O)C[C@@H](C)C(=O)[C@H](C)[C@@H](O)[C@]1(C)O [ERYTHROMYCIN] | 85% | –
3 | C[C@H]1COc2c(N3CCN(C)CC3)c(F)cc3c(=O)c(C(=O)O)cn1c23.C[C@H]1COc2c(N3CCN(C)CC3)c(F)cc3c(=O)c(C(=O)O)cn1c23.O [LEVOFLOXACIN] | 45% | –
4 | Cc1onc(-c2ccccc2)c1C(=O)N[C@@H]1C(=O)N2[C@@H]1SC(C)(C)[C@@H]2C(=O)O [OXACILLIN] | 100% | –
5 | CC1(C)S[C@@H]2[C@H](NC(=O)Cc3ccccc3)C(=O)N2[C@H]1C(=O)O [PENICILLIN G] | 100% | –
6 | CN(C)[C@@H]1C(O)=C(C(N)=O)C(=O)[C@@]2(O)C(O)=C3C(=O)c4c(O)cccc4[C@@](C)(O)[C@H]3C[C@@H]12 [TETRACYCLINE] | – | Activity (Staphylococcus aureus [3]): 8.4%
7 | GENTAMICIN | – | Activity (Staphylococcus aureus [4]): 1%
